Test results: patent US9439897B2, “Use of psoralen derivatives and combination therapy for treatment of cell proliferation disorders” (IMMUNOLIGHT, LLC, priority 2014, dated 2016)

Key:
MCF7 cells = experiment: Cell growth and viability assay (WST-1); format: cell-based, human; details: PUVA, 2.5 and 5 μM 8MOP; compared with ErbB2+ lines
Description: (§1) UV irradiation was carried out in 6 or 96 well plate format in a UV Stratalinker 1800 (Statagene, LA Jolla, Calif.) at the UV doses indicated in the figures. Cell growth and viability assays were performed in a 96-well plate format in a final volume of 100 μl/well using the cell proliferation reagent WST-1 from Roche Diagnostics (Mannheim, Germany), as previously described. Details of the apoptosis assay have been previously described. Briefly, cells were treated in 12-well plates with 8MOP, UV irradiation, or lapatinib at the treatment conditions indicated in the Figure legends. Cells were harvested with trypsin-EDTA, and 5000 cells in final volume of 50 μl were sampled in 96-well microplates. Cells were directly stained with annexin V-PE and nexin 7-AAD in 1× Nexin Buffer in a 200 μl final reaction volume. After incubating at room temperature for 20 min, the reaction samples were analyzed in the Guava PCA-96-system (Guava Technology Inc. Hayward, Calif.).

[1] = system: ErbB2+ breast cancer cell lines (BT474; SKBR3); experiment: Cell growth and viability assay (WST-1); format: cell-based, human
Description: as §1

T47D cells = experiment: Growth and apoptosis in T47D and p85ErbB2 transfected T47D cells; format: cell-based, human
Description: as §1
(§2) The c-terminal fragment (p85^ErbB2) was generated based on ErbB2 open reading frames and sub-cloned into the pcDNA 3.1 (+) as previously described. HER2 negative T47D breast cancer cells were transfected with the p85 expressing vector using the Lipofectamine™ 2000 Reagent from Invitrogen (Carlsbad, Calif.) as previously described. […]

[2] = system: ErbB2+ breast cancer cells (BT474; SKBR3); experiment: Apoptosis assay (annexin V-PE / 7-AAD); format: cell-based, human
Description: as §1

p85^ErbB2 = experiment: Western blot of phospho-p85ErbB2 in stably transfected T47D cells; format: cell-based, human; details: p85 expressing T47D cells; 5 μM lapatinib or 5 μM 8MOP 4 hr, then UV irradiation
Description: (§3) Whole cell extracts were prepared by scraping cells off petri dishes, washing cell pellets 2× in phosphate buffered saline (PBS), and then re-suspending pellets in two-packed-cell volumes of RIPA buffer (150 mM NaCl, 50 mM Tris-HCl, pH 7.5, 0.25% (w/v) deoxycholate, 1% NP-40, 5 mM sodium orthovanadate, 2 mM sodium fluoride, and a protease inhibitor cocktail). Protein concentrations were determined using a modification of the Bradford method (Bio-Rad Labs, Hercules, Calif.). For Western blot analysis, equal amounts of proteins (25 to 50 μg) were resolved by either 7.5% or 4-15% gradient SDS polyacrylamide gel electrophoresis under reducing conditions as previously described. Proteins were transferred to nitrocellulose membranes and probed with primary antibodies specific for proteins of interest. After extensive washing, membranes were incubated with a secondary IRDye 800 conjugated anti-rabbit or mouse IgG, or Alexa Fluor 680 anti-rabbit IgG and proteins were visualized using the LI-COR Odyssey Infrared Imaging System (LI-COR, Inc., Lincoln, Nebr.).
as §2

[3] = system: human foreskin fibroblast cell line (HFF); experiment: Cell growth and viability assay (WST-1); format: cell-based; details: PUVA, 2.5 and 5 μM 8MOP; compared with ErbB2+ lines
Description: as §1

rBT474 and rSKBR3 cells = experiment: Cell growth and viability assay in lapatinib resistant cells; format: cell-based, human; details: PUVA; cells maintained in 1 μM lapatinib; dose-dependent
From the text: ErbB2+(BT474; SKBR3) and ErbB2 negative (MCF-7; T47D) human breast cancer cell lines, and the human foreskin fibroblast (HFF) cell line were obtained from the American Type Culture Collection (Manassas, Va.). Lapatinib resistant breast cancer cells (rBT474; rSKBR3) were generated and maintained in culture as previously described. Cells were maintained in RPMI-1640 supplemented with 10% fetal bovine serum and L-glutamine from GIBCO (Grand Island, N.Y.) growing in a humidified atmosphere of 5% CO2 at 37° C. IRDye 800 conjugated affinity purified anti-rabbit IgG and anti-mouse IgG were from Rockland (Gilbertsville, Pa.). Alexa Fluor 680 goat anti-rabbit IgG were purchased from Molecular Probes (Eugene, Oreg.). Anti-PARP (Poly (ADP-ribose) Polymerase) monoclonal antibody was from BD PharMingen (San Jose, Calif.). 8-Methoxypsoralen (8MOP) and the 4G10 anti-phosphotyrosine (p-tyr) antibody were purchased from Sigma-Aldrich (St. Louis, Mo.). Monoclonal antibodies to c-ErbB2 and EGFR were purchased from Neo Markers (Union City, Calif.). […]
UV irradiation was carried out in 6 or 96 well plate format in a UV Stratalinker 1800 (Statagene, LA Jolla, Calif.) at the UV doses indicated in the figures. […] After incubating at room temperature for 20 min, the reaction samples were analyzed in the Guava PCA-96-system (Guava Technology Inc. Hayward, Calif.).

[4] = system: EGFR, ErbB3, Akt, PARP in rBT474 and rSKBR3; experiment: Western blot analysis in lapatinib resistant cells; format: cell-based, human
Description: as §3

ErbB2 = experiment: Western blot analysis of ErbB2 signaling in ErbB2+ breast cancer cells; format: cell-based, human
Description: as §3

For `COc1c2occc2cc2ccc(=O)oc12` [8MOP, 8-Methoxypsoralen], the “growth and viability of MCF7 cells” value (MCF7 cells) was “relatively less effect”, the cell viability ([1]; 8MOP alone, no UV irradiation) was “relatively little effect” and the “growth and viability of ErbB2+ breast cancer cell lines” value ([1]; PUVA: 8MOP 4 hr pre-treatment, UVA irradiation (2J), 72 hr, dose-dependent) was “significantly inhibited”. The “antitumor effect (growth)” value (T47D cells; T47D cells transfected with empty vector alone) was “antitumor effect”, the tumor cell apoptosis (T47D cells; p85 expressing T47D cells) was “triggering tumor cell apoptosis” and the apoptosis ([2]; PUVA: 8MOP + UVA irradiation (2J), 72 hr) was “induction of apoptosis”. The p85ErbB2 phosphorylation (p85^ErbB2) was “markedly inhibited”, the “growth and viability of HFF cells” value [3] was “relatively less effect” and the “tumor cell growth and viability” value (rBT474 and rSKBR3 cells) was “significantly reduced”. The PARP cleavage product ([4]; PUVA-treated lapatinib resistant tumor cells) was “increased”, the “expression of phosphorylated EGFR (Y992), ErbB3 (Y1197) and Akt (T308)” value ([4]; PUVA-treated rBT474 and rSKBR3) was “reduction” and the “total EGFR and ErbB3 protein expression” value ([4]; PUVA-treated rBT474 and rSKBR3) was “markedly reduced”. For the same compound, the ErbB2 signaling (ErbB2; 8MOP alone, no UV irradiation) was “relatively little effect”, the “phosphorylated forms of Akt and Erk1/2” value (ErbB2; PUVA (8MOP + UVA)) was “inhibited” and the “steady-state protein levels of phosphorylated ErbB2” value (ErbB2; PUVA (8MOP + UVA), dose-dependent) was “reduced”. For the same compound, the “total ErbB2 protein levels” value (ErbB2; higher doses of PUVA therapy) was “reduced”.

`CCOc1cc2ncc(C#N)c(Nc3ccc(OCc4ccccn4)c(Cl)c3)c2cc1NC(=O)/C=C/CN(C)C` [neratinib] was tested, and the cell viability ([1]; combination of 8-MOP, UVA irradiation and neratinib, each at sub-lethal doses) was “significantly enhanced inhibition”, the “apoptosis in ErbB2+ breast cancer cells” value ([2]; neratinib at sub-lethal doses combined with PUVA) was “significantly increased” and the “total ErbB2 and ErbB3 protein expression” value (ErbB2; neratinib in combination with UVA irradiation alone, more pronounced in SKBR3) was “further loss”. For the same compound, the “p-Akt (S473) expression” value (ErbB2; neratinib treatment alone) was “loss” and the “total ErbB2 and ErbB3 protein levels” value (ErbB2; neratinib treatment alone) was “marked reduction”.

In the case of `Cc1c2occc2cc2c1oc(=O)c1cnccc12` [7-methylpyridopsoralen], the “growth and viability of ErbB2+ breast cancer cells” value ([1]; upon photo-activation (UVA irradiation), 72 hr, BT474 and SKBR3) is reported as “significantly inhibited” and the “phosphorylated and total ErbB2 protein expression” value (ErbB2; upon photo-activation (UVA irradiation)) is reported as “inhibition”.

`CS(=O)(=O)CCNCc1ccc(-c2ccc3ncnc(Nc4ccc(OCc5cccc(F)c5)c(Cl)c4)c3c2)o1` [lapatinib] was tested, and the p85ErbB2 phosphorylation (p85^ErbB2) was “not inhibited”.
